Measured values as given in patent US20220323406A1, “METHODS AND COMPOSITIONS FOR DIFFERENTIATING STEM CELLS” (Massachusetts Institute of Technology, priority 2019, published 2022).

Key:
[1] = tested on: ENR+CD organoids (ISC to Paneth cell differentiation); test: Primary screen: basal (non-stimulated) lysozyme secretion LYZ.NS, 2.5-D 384-well ENR+CD organoid differentiation; type: cell-based, mouse
From the text: (§1) High-throughput screening.

[2] = tested on: ENR+CD organoids (ISC to Paneth cell differentiation); test: Primary screen: CCh-stimulated lysozyme secretion LYZ.S, 2.5-D 384-well ENR+CD organoid differentiation; type: cell-based, mouse; conditions: primary screen
From the text: as §1

[3] = tested on: ENR+CD organoids; test: Primary screen: ATP (CellTiter-Glo 3D, CTG) cell number/viability, 2.5-D 384-well ENR+CD organoids; conditions: primary screen; for Z.CTG: standard z score;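 as to all read-outs here: compounds given at plating and again on day 3 over a 6-day differentiation from ENR+CV stem-cell-enriched precursors, ATP measured on day 6, plate median as control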
[4] = primary screen, dose 0.08 uM, standard z score
[5] = primary screen, dose 0.40 uM, standard z score
[6] = primary screen, dose 2.00 uM, standard z score
[7] = primary screen, dose 10.00 uM, standard z score
[8] = dose 0.08 uM, FC vs plate median
[9] = dose 0.40 uM, FC vs plate median
[10] = dose 2.00 uM, FC vs plate median
[11] = dose 10.00 uM, FC vs plate median
[12] = dose 0.08 uM, FC relative to plate median
[13] = dose 0.40 uM, FC relative to plate median
[14] = dose 2.00 uM, FC relative to plate median
[15] = dose 10.00 uM, FC relative to plate median

With I-BET151 (GSK1210151A) the “Dose.FC.LYZ.NS (log2 fold change)” value ([1]; primary screen, dose 0.08 uM) was −0.116, the “Z.LYZ.NS (standard z score)” value ([1]; primary screen, dose 0.08 uM) was −1.010 and the “Dose.FC.LYZ.NS (log2 fold change)” value ([1]; primary screen, dose 0.40 uM) was −0.248. The “Z.LYZ.NS (standard z score)” value ([1]; primary screen, dose 0.40 uM) was −2.159, the “Dose.FC.LYZ.NS (log2 fold change)” value ([1]; primary screen, dose 2.00 uM) was −0.299 and the “Z.LYZ.NS (standard z score)” value ([1]; primary screen, dose 2.00 uM) was −2.601. For the same molecule, the “Dose.FC.LYZ.NS (log2 fold change)” value ([1]; primary screen, dose 10.00 uM) was −0.284, the “Z.LYZ.NS (standard z score)” value ([1]; primary screen, dose 10.00 uM) was −2.473 and the “Dose.FC.LYZ.S (log2 fold change)” value ([2]; dose 0.08 uM) was −0.242. The “Dose.FC.LYZ.S (log2 fold change)” value ([2]; dose 0.40 uM) was −0.344, the “Dose.FC.LYZ.S (log2 fold change)” value ([2]; dose 2.00 uM) was −0.416 and the “Dose.FC.LYZ.S (log2 fold change)” value ([2]; dose 10.00 uM) was −0.408. For the same molecule, the “Dose.FC.CTG (log2 fold change)” value ([3]; dose 0.08 uM) was −0.016, the “Z.CTG (standard z score)” value ([3]; dose 0.08 uM) was −0.039 and the “Dose.FC.CTG (log2 fold change)” value ([3]; dose 0.40 uM) was −0.174. The “Z.CTG (standard z score)” value ([3]; dose 0.40 uM) was −0.415, the “Dose.FC.CTG (log2 fold change)” value ([3]; dose 2.00 uM) was −0.502 and the “Z.CTG (standard z score)” value ([3]; dose 2.00 uM) was −1.200. The “Dose.FC.CTG (log2 fold change)” value ([3]; dose 10.00 uM) was −0.935 and the “Z.CTG (standard z score)” value ([3]; dose 10.00 uM) was −2.233.

COc1ccc(-c2nc3ccc(C4=NNC(=O)CC4C)cc3[nH]2)cc1 (centres unmarked) [Pimobendan] gave a Z.LYZ.NS [1, 4] of 0.328, a Z.LYZ.NS [1, 5] of 0.546 and a Z.LYZ.NS [1, 6] of 1.121. The Z.LYZ.NS [1, 7] was −0.577, the Dose.FC.LYZ.NS ([1]; primary screen; dose 0.08 uM; FC vs plate median) was 0.038 log2 fold change and the Dose.FC.LYZ.NS ([1]; primary screen; dose 0.40 uM; FC vs plate median) was 0.063 log2 fold change. It also gave a Dose.FC.LYZ.NS ([1]; primary screen; dose 2.00 uM; FC vs plate median) of 0.129 log2 fold change, a Dose.FC.LYZ.NS ([1]; primary screen; dose 10.00 uM; FC vs plate median) of −0.066 log2 fold change and a Dose.FC.LYZ.S [2, 8] of 0.129 log2 fold change. For the same molecule, the Dose.FC.LYZ.S [2, 9] was 0.051 log2 fold change, the Dose.FC.LYZ.S [2, 10] was 0.194 log2 fold change and the Dose.FC.LYZ.S [2, 11] was −0.134 log2 fold change. The Dose.FC.CTG [3, 8] was −0.022 log2 fold change, the Dose.FC.CTG [3, 9] was 0.193 log2 fold change and the Dose.FC.CTG [3, 10] was 0.206 log2 fold change. The Dose.FC.CTG [3, 11] was 0.139 log2 fold change.

CNC(=C[N+](=O)[O-])NCCSCc1ccc(CN(C)C)o1 [Ranitidine] was tested, and the Dose.FC.LYZ.NS ([1]; primary screen, dose 0.08 uM, FC relative to plate median) was −0.027 log2 fold change, the Z.LYZ.NS [1, 4] was −0.234 and the Dose.FC.LYZ.NS ([1]; primary screen, dose 0.40 uM, FC relative to plate median) was 0.011 log2 fold change. It also gave a Z.LYZ.NS [1, 5] of 0.095, a Dose.FC.LYZ.NS ([1]; primary screen, dose 2.00 uM, FC relative to plate median) of −0.045 log2 fold change and a Z.LYZ.NS [1, 6] of −0.389. The Dose.FC.LYZ.NS ([1]; primary screen, dose 10.00 uM, FC relative to plate median) was −0.046 log2 fold change, the Z.LYZ.NS [1, 7] was −0.401 and the Dose.FC.LYZ.S [2, 12] was −0.020 log2 fold change. The Dose.FC.LYZ.S [2, 13] was 0.071 log2 fold change, the Dose.FC.LYZ.S [2, 14] was −0.040 log2 fold change and the Dose.FC.LYZ.S [2, 15] was −0.043 log2 fold change. It also gave a Dose.FC.CTG [3, 12] of −0.051 log2 fold change, a Dose.FC.CTG [3, 13] of 0.155 log2 fold change and a Dose.FC.CTG [3, 14] of −0.069 log2 fold change. It also gave a Dose.FC.CTG [3, 15] of −0.262 log2 fold change.

Cn1cc(C2=C(c3cn(C4CCN(Cc5ccccn5)CC4)c4ccccc34)C(=O)NC2=O)c2ccccc21 [Enzastaurin (LY317615)] showed a Dose.FC.LYZ.NS ([1]; primary screen, dose 0.08 uM) of 0.085 log2 fold change, a Dose.FC.LYZ.NS ([1]; primary screen, dose 0.40 uM) of 0.131 log2 fold change and a Dose.FC.LYZ.NS ([1]; primary screen, dose 2.00 uM) of 0.053 log2 fold change. For the same molecule, the Dose.FC.LYZ.NS ([1]; primary screen, dose 10.00 uM) was −0.116 log2 fold change, the Z.LYZ.NS ([1]; primary screen, standard z score, dose 0.08 uM) was 0.744 and the Z.LYZ.NS ([1]; primary screen, standard z score, dose 0.40 uM) was 1.143. It also gave a Z.LYZ.NS ([1]; primary screen, standard z score, dose 2.00 uM) of 0.458, a Z.LYZ.NS ([1]; primary screen, standard z score, dose 10.00 uM) of −1.012 and a Dose.FC.LYZ.S ([2]; dose 0.08 uM) of 0.109 log2 fold change. For the same molecule, the Dose.FC.LYZ.S ([2]; dose 0.40 uM) was 0.251 log2 fold change, the Dose.FC.LYZ.S ([2]; dose 2.00 uM) was 0.053 log2 fold change and the Dose.FC.LYZ.S ([2]; dose 10.00 uM) was −0.226 log2 fold change. For the same molecule, the Dose.FC.CTG ([3]; dose 0.08 uM) was 0.236 log2 fold change, the Dose.FC.CTG ([3]; dose 0.40 uM) was 0.475 log2 fold change and the Dose.FC.CTG ([3]; dose 2.00 uM) was 0.251 log2 fold change. For the same molecule, the Dose.FC.CTG ([3]; dose 10.00 uM) was −0.081 log2 fold change, the Z.CTG ([3]; dose 0.08 uM) was 0.565 and the Z.CTG ([3]; dose 0.40 uM) was 1.135. For the same molecule, the Z.CTG ([3]; dose 2.00 uM) was 0.600 and the Z.CTG ([3]; dose 10.00 uM) was −0.194.

C/C(=C\C(=O)Nc1ccccc1C(=O)O)c1ccc2ccccc2c1 [BIBR 1532] was tested, and the Dose.FC.LYZ.NS ([1]; primary screen, dose 0.08 uM) was 0.032 log2 fold change, the “Z.LYZ.NS (standard z score)” value ([1]; primary screen, dose 0.08 uM) was 0.282 and the Dose.FC.LYZ.NS ([1]; primary screen, dose 0.40 uM) was 0.043 log2 fold change. For the same molecule, the “Z.LYZ.NS (standard z score)” value ([1]; primary screen, dose 0.40 uM) was 0.377, the Dose.FC.LYZ.NS ([1]; primary screen, dose 2.00 uM) was −0.013 log2 fold change and the “Z.LYZ.NS (standard z score)” value ([1]; primary screen, dose 2.00 uM) was −0.117. For the same molecule, the Dose.FC.LYZ.NS ([1]; primary screen, dose 10.00 uM) was −0.062 log2 fold change, the “Z.LYZ.NS (standard z score)” value ([1]; primary screen, dose 10.00 uM) was −0.536 and the Dose.FC.LYZ.S ([2]; dose 0.08 uM) was 0.028 log2 fold change. The Dose.FC.LYZ.S ([2]; dose 0.40 uM) was 0.107 log2 fold change, the Dose.FC.LYZ.S ([2]; dose 2.00 uM) was −0.081 log2 fold change and the Dose.FC.LYZ.S ([2]; dose 10.00 uM) was −0.114 log2 fold change. The Dose.FC.CTG ([3]; dose 0.08 uM) was 0.223 log2 fold change, the “Z.CTG (standard z score)” value ([3]; dose 0.08 uM) was 0.533 and the Dose.FC.CTG ([3]; dose 0.40 uM) was −0.047 log2 fold change. The “Z.CTG (standard z score)” value ([3]; dose 0.40 uM) was −0.113, the Dose.FC.CTG ([3]; dose 2.00 uM) was −0.034 log2 fold change and the “Z.CTG (standard z score)” value ([3]; dose 2.00 uM) was −0.080. The Dose.FC.CTG ([3]; dose 10.00 uM) was 0.030 log2 fold change and the “Z.CTG (standard z score)” value ([3]; dose 10.00 uM) was 0.072.
